Experimental data reported in patent publication US9340559B2, “Proteasome inhibitor delanzomib for use in the treatment of lupus” (Cephalon, Inc., priority 2011, dated 2016).

Key:
Type in all cases: in vivo, mouse
[1] = system: NZM mice
[2] = system: NZM mice; assay: Antibody secreting B-cell Elispot (anti-chromatin, total IgG ASC), spleens of NZM mice (Example 2)
Method: (§1) FIG. 34 depicts the frequency of anti-chromatin antibody secreting cells in the spleens of NZM mice. NZM treated mice spleens were processed for splenocytes for ex vivo Elispot assays. Elispot wells were coated with 10 μg/mL of boiled chicken chromatin or ovalbumin protein. Fresh, whole splenocytes were added to each well at 50,000 cells per well in cell culture medium. Cells were incubated overnight at 37° C. Developed wells provided spots that were counted as frequency of ASCs per million splenocytes.
as §1, with “35” for “34”, “total IgG” for “anti-chromatin”, “anti-mouse IgG, IgH, and IgL chains.” for “boiled chicken chromatin or ovalbumin protein.”
B-cell Elispot components are ordered from MabTech (Nacka Strand, Sweden) and nitrocellulose IP filter plates are ordered from Millipore (Billerica, Mass.). Elispot wells are coated with either purified bovine thymus dsDNA (Sigma), purified bovine Smith antigen (GenWay) or boiled filtered purified chicken chromatin from lysed chicken red blood cells (Rockland, Gilbertsville, Pa.) at 10 μg/mL. Spleens are processed using glass homogenization (frosted slides). Dispersed cell contents are washed in sterile HBSS and RBCs lysed using 1×RBC lysis buffer (BioLegend, Cat #420301). Processed splenocytes are added to each well and are not stimulated with lipopolysaccharide (LPS) to avoid skewing of true ex vivo frequencies of antibody-secreting cell types (ASCs). Anti-mouse pan-IgG is used as a positive control for total IgG producing ASCs and is used to normalize results. Frequencies for each antigen are identified in an initial test phase for each model. For chromatin and total IgG only, 30,000 splenocytes are added to each well; for Smith antigen and dsDNA, 500,000 cells are added to each well. Different numbers of splenocytes are added for different antigens due to saturation limits of spot frequencies per well. B-cell Elispots are incubated overnight at 37° C. To develop each assay, secondary antibody is added to each well, incubated, washed and alkaline phosphatase strepavidin (Jackson ImmunoResearch, West Grove, Pa.) is used as the conjugate; substrate used is BCIP-NBT (MabTech, Cincinnati, Ohio). Plates are developed until spots are visible. All Elispot analyses are performed using an Immunospot C.T.L. scanner and Biospot software (Cellular Technology Ltd., Shaker Heights, Ohio). Results are shown as values from which media and cells only wells are subtracted. Some values are negative due to high background.

[3] = system: MRL/lpr mice; assay: Urinalysis: total urine protein (proteinuria), MRL/lpr mice
Method: Urine samples are acid precipitated for total protein recovery and analysis. Samples for which enough urine remained are used for Uristix® leukouria analysis. Briefly, a standard protein solution is prepared from normal mouse sera and is used as a standard for mouse urinary protein assay by turbidity. Standard preparation is as follows: 0, 5, 10, 15, 20, 30, 40, and 50 μL of a 4 mg/mL mouse sera standard protein solution as provided in the kit are added in duplicate into two columns. PBS is added to individual wells to adjust the final volume to 50 μL. For urine sample preparation, urine samples are centrifuged at 9880×g for 3 minutes using a tabletop micro-centrifuge. Urine supernatant (1-50 μL) is added in duplicate. PBS is added to adjust the volume to 50 μL total. For the turbidity assay: 25 μL of 0.1 N HCl is added into blank columns and 250 μL of 3% sulfosalicyclic acid into the test columns. The microplate is incubated for 10 minutes at RT and plates are read using an ELISA reader with single beam at 450 nm. For the Uristix® strip assay, strips are laid out and labeled. Twenty microliters of urine are placed onto each test strip square and incubated for at least 30 seconds before the result is recorded. For all total urine analysis plate-based assays, values below the limit of detection set by the lowest point along the standard or set by the manufacturer are considered out of range and are not estimated, but assumed the lowest point along the standard curve for that particular assay.

CC(C)C[C@H](NC(=O)[C@@H](NC(=O)c1cccc(-c2ccccc2)n1)[C@@H](C)O)B(O)O [COMPOUND A, [(1R)-1-[[(2S,3R)-3-hydroxy-2-[6-phenyl-pyridine-2-carbonyl)amino]-1-oxobutyl]amino]-3-methylbutylboronic acid]
p, serum IP-10 concentration vs G6 Bortezomib 0.3 mg/kg 2× wk ip ([1]; G2 3 mg/kg 2× wk ip): NS (NS = not significant (p > 0.05)) | p, serum IP-10 concentration vs G7 CTX 50 mg/kg 1× wk ip ([1]; G2 3 mg/kg 2× wk ip): p < 0.001 | p, serum IP-10 concentration vs G8 Dex 1.5 mg/kg 3× wk ip ([1]; G2 3 mg/kg 2× wk ip): NS (NS = not significant (p > 0.05)) | p, serum IP-10 concentration vs G9 Vehicle 1× wk ip ([1]; G2 3 mg/kg 2× wk ip): NS (NS = not significant (p > 0.05)) | p, serum MIG concentration vs G5 Bortezomib 0.3 mg/kg 1× wk ip ([1]; G2 3 mg/kg 2× wk ip): NS (NS = not significant (p > 0.05)) | p, serum MIG concentration vs G6 Bortezomib 0.3 mg/kg 2× wk ip ([1]; G2 3 mg/kg 2× wk ip): NS (NS = not significant (p > 0.05)) | p, serum MIG concentration vs G7 CTX 50 mg/kg 1× wk ip ([1]; G2 3 mg/kg 2× wk ip): p < 0.001 | p, serum MIG concentration vs G8 Dex 1.5 mg/kg 3× wk ip ([1]; G2 3 mg/kg 2× wk ip): NS (NS = not significant (p > 0.05)) | p, serum MIG concentration vs G9 Vehicle 1× wk ip ([1]; G2 3 mg/kg 2× wk ip): NS (NS = not significant (p > 0.05)) | p, serum TNFα concentration vs G5 Bortezomib 0.3 mg/kg 1× wk ip ([1]; G2 3 mg/kg 2× wk ip): NS (NS = not significant (p > 0.05)) | p, serum TNFα concentration vs G6 Bortezomib 0.3 mg/kg 2× wk ip ([1]; G2 3 mg/kg 2× wk ip): NS (NS = not significant (p > 0.05)) | p, serum TNFα concentration vs G7 CTX 50 mg/kg 1× wk ip ([1]; G2 3 mg/kg 2× wk ip): NS (NS = not significant (p > 0.05)) | p, serum TNFα concentration vs G8 Dex 1.5 mg/kg 3× wk ip ([1]; G2 3 mg/kg 2× wk ip): p <0.001 | p, serum TNFα concentration vs G9 Vehicle 1× wk ip ([1]; G2 3 mg/kg 2× wk ip): NS (NS = not significant (p > 0.05)) | Cytokine IL-12 AUC, percent change vs vehicle ([1]; G2 3 mg/kg ip, 2× wk): −67% | Cytokine IL-13 AUC, percent change vs vehicle ([1]; G2 3 mg/kg ip, 2× wk): −33% | Cytokine IL-17A AUC, percent change vs vehicle ([1]; G2 3 mg/kg ip, 2× wk): −89% | Cytokine IP-10 AUC, percent change vs vehicle ([1]; G2 3 mg/kg ip, 2× wk): −30% | Cytokine MIG AUC, percent change vs vehicle ([1]; G2 3 mg/kg ip, 2× wk): −66% | Cytokine TNFα AUC, percent change vs vehicle ([1]; G2 3 mg/kg ip, 2× wk): −57% | serum IL-12p40/p70 decrease vs vehicle ([1]; G2: 3 mg/kg ip twice weekly): 67% | serum TNFα compared to Dex ([1]; both once and twice weekly doses, p<0.001): decreased serum TNFα over that of Dex | serum IL-12 decrease vs vehicle, range over the substance's groups ([1]; once and twice weekly groups): 67-83% | serum CXCL9/MIG as compared to CTX ([1]; p<0.001 vs CTX, but not to DEX): decreased | IL-13 serum levels compared to vehicle ([1]; treatment groups): No significant change | IL-17A serum levels compared to vehicle ([1]; treatment groups): No significant change | serum CXCL10/IP-10 decrease vs vehicle ([1]; twice weekly dose): 30% | anti-chromatin ASC decrease vs vehicle ([2]; COMPOUND A groups): 96-100% | p, frequency of anti-chromatin antibody secreting cells in spleen vs G5 Bortezomib 0.3 mg/kg 1× wk ip ([2]; G1 3 mg/kg 1× wk ip): p < 0.001 | p, frequency of anti-chromatin antibody secreting cells in spleen vs G6 Bortezomib 0.3 mg/kg 2× wk ip ([2]; G1 3 mg/kg 1× wk ip): p < 0.01 | p, frequency of anti-chromatin antibody secreting cells in spleen vs G8 Dex 1.5 mg/kg 3× wk ip ([2]; G1 3 mg/kg 1× wk ip): p < 0.01 | p, frequency of anti-chromatin antibody secreting cells in spleen vs G9 Vehicle 1× wk ip ([2]; G1 3 mg/kg 1× wk ip): p < 0.01 | p, frequency of total IgG antibody secreting cells in spleen vs G5 Bortezomib 0.3 mg/kg 1× wk ip ([2]; G1 3 mg/kg 1× wk ip): p < 0.01 | p, frequency of total IgG antibody secreting cells in spleen vs G7 CTX 50 mg/kg 1× wk ip ([2]; G1 3 mg/kg 1× wk ip): p < 0.01 | p, frequency of total IgG antibody secreting cells in spleen vs G8 Dex 1.5 mg/kg 3× wk ip ([2]; G1 3 mg/kg 1× wk ip): p < 0.01 | p, frequency of total IgG antibody secreting cells in spleen vs G9 Vehicle 1× wk ip ([2]; G1 3 mg/kg 1× wk ip): p < 0.05 | ASC chromatin EOS, percent change vs vehicle ([2]; G1 3 mg/kg ip, 1× wk): −96% | ASC total IgG EOS, percent change vs vehicle ([2]; G1 3 mg/kg ip, 1× wk): −62% | p, frequency of anti-chromatin antibody secreting cells in spleen vs G5 Bortezomib 0.3 mg/kg 1× wk ip ([2]; G2 3 mg/kg 2× wk ip): P < 0.01 | p, frequency of anti-chromatin antibody secreting cells in spleen vs G6 Bortezomib 0.3 mg/kg 2× wk ip ([2]; G2 3 mg/kg 2× wk ip): p < 0.05 | p, frequency of anti-chromatin antibody secreting cells in spleen vs G9 Vehicle 1× wk ip ([2]; G2 3 mg/kg 2× wk ip): p < 0.01 | p, frequency of total IgG antibody secreting cells in spleen vs G5 Bortezomib 0.3 mg/kg 1× wk ip ([2]; G2 3 mg/kg 2× wk ip): p < 0.001 | p, frequency of total IgG antibody secreting cells in spleen vs G7 CTX 50 mg/kg 1× wk ip ([2]; G2 3 mg/kg 2× wk ip): p < 0.01 | p, frequency of total IgG antibody secreting cells in spleen vs G8 Dex 1.5 mg/kg 3× wk ip ([2]; G2 3 mg/kg 2× wk ip): p < 0.01 | p, frequency of total IgG antibody secreting cells in spleen vs G9 Vehicle 1× wk ip ([2]; G2 3 mg/kg 2× wk ip): p < 0.01 | ASC chromatin EOS, percent change vs vehicle ([2]; G2 3 mg/kg ip, 2× wk): −100% | ASC total IgG EOS, percent change vs vehicle ([2]; G2 3 mg/kg ip, 2× wk): −67% | total IgG producing ASC decrease vs vehicle ([2]; spleen): 62-67% | Urine AUC proteinuria, percent change vs vehicle ([3]; G1: 3 mg/kg iv, 1× wk): −60% | Urine AUC proteinuria, percent change vs vehicle ([3]; G2: 3 mg/kg iv, 2× wk): −70% | Urine AUC proteinuria, percent change vs vehicle ([3]; G3: 10 mg/kg po, 2× wk): −71% | total urine protein reduction relative to vehicle ([3]; Group 1): 60% | total urine protein reduction relative to vehicle ([3]; Group 2): 70% | total urine protein reduction relative to vehicle ([3]; Group 3): 71%
